Data reported in patent publication US10874743B2, “IRAK degraders and uses thereof” (Kymera Therapeutics, Inc., priority 2017, dated 2020).

Tests used:
IRAK4 [1] = target: T1, IRAK4 (Homo sapiens, UniProt Q9NWZ3); test: OCI-LY-10 degradation assay (western blot, % IRAK4 degraded after 4 hours); assay type: cell-based; set-up: endogenous in cells; host or cells: OCI-LY10; conditions: OCI-LY10 cells, 4 hours; for OCI-LY10 % IRAK4 Degradation (0.01 uM): 0.01 uM compound; for OCI-LY10 % IRAK4 Degradation (0.1 uM): 0.1 uM compound; for OCI-LY10 % IRAK4 Degradation (1 uM): 1 uM compound
T1 sequence (Q9NWZ3 1-460): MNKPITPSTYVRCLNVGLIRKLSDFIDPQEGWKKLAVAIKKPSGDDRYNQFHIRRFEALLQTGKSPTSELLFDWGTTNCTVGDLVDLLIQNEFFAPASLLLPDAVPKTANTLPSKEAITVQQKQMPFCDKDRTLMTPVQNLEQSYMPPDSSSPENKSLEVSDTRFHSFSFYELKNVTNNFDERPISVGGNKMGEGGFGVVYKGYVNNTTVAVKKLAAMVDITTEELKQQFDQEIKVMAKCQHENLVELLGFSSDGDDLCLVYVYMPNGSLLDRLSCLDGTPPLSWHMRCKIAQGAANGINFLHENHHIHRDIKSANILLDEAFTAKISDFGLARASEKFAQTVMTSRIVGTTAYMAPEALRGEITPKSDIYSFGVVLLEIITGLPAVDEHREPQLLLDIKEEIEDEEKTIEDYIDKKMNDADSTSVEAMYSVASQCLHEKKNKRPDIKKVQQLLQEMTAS
Outline: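 IRAK4 loss after 4 h at 37° C was scored A (>50%), B (>20-50%) or C (<20%) from infrared western blots of RIPA lysates, 20-25 μg protein per lane. Compound was applied at 0.003-10 μM final to OCI-LY10 cells cultured in RPMI-1640 with 20% FBS and 55 μM 2-ME.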

IRAK4 [2] = target: T1, IRAK4; test: OCI-LY-10 MSD assay for IRAK4 DC50; assay type: cell-based; set-up: endogenous in cells; host or cells: OCI-LY10; conditions: OCI-LY10 cells, 4 hr incubation, concentration required to degrade 50% of protein
Outline: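 IRAK4 level was quantified by MSD electrochemiluminescence (anti-IRAK4 capture antibody, rabbit anti-IRAK4 detection antibody) in RIPA lysates of OCI-Ly10 cells. Cells had been treated with compound for 4 hr (8-point, 3-fold serial dilution). Remaining protein versus concentration was fitted to a sigmoidal curve to give DC50.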

Row | Compound | OCI-LY10 % IRAK4 Degradation (0.01 uM) (IRAK4 [1]) | OCI-LY10 % IRAK4 Degradation (0.1 uM) (IRAK4 [1]) | OCI-LY10 % IRAK4 Degradation (1 uM) (IRAK4 [1]) | DC50 (IRAK4 [2]) [µM]
1 | CN(CCOCCOCCCc1cccc2c1C(=O)N(C1CCC(=O)NC1=O)C2=O)C(=O)c1ccc(-n2cc(NC(=O)c3coc(-c4ccnc(NCC5CC5)c4)n3)c(C(N)=O)n2)cc1 (stereo not shown) [I-224] | B (>20-50% degradation) | A (>50% degradation) | A (>50% degradation) | < 0.05
2 | O=C1CCC(N2C(=O)c3ccc(NC4CCN(CCOCCOCCOCCNCc5ccc(-n6cc(NC(=O)c7coc(-c8ccnc(NCC9CC9)c8)n7)c(C(F)F)n6)cc5)CC4)cc3C2=O)C(=O)N1 (stereo not shown) [I-389] | C (<20% degradation) | C (<20% degradation) | A (>50% degradation) | 0.5 to 1
3 | O=C1CCC(n2c(=O)oc3c(CCCOCCOCCNC(=O)c4ccc(-n5cc(NC(=O)c6coc(-c7ccnc(NCC8CC8)c7)n6)c(C(F)F)n5)cc4)cccc32)C(=O)N1 (stereo not shown) [I-265] | B (>20-50% degradation) | A (>50% degradation) | A (>50% degradation) | < 0.05
4 | O=C1CCC(N2Cc3cc(NC4CCN(CCOCCOCCNCc5ccc(-n6cc(NC(=O)c7coc(-c8ccnc(NCC9CC9)c8)n7)c(C(F)F)n6)cc5)CC4)ccc3C2=O)C(=O)N1 (stereo not shown) [I-387] | C (<20% degradation) | C (<20% degradation) | B (>20-50% degradation) | > 1
5 | NC(=O)c1nn(-c2ccc(C(=O)NCCOCCOCCN3CCC(Nc4cccc5c4C(=O)N(C4CCC(=O)NC4=O)C5=O)CC3)cc2)cc1NC(=O)c1coc(-c2ccnc(NCC3CC3)c2)n1 (stereo not shown) [I-290] | B (>20-50% degradation) | B (>20-50% degradation) | B (>20-50% degradation) | > 1
6 | O=C1CCC(N2C(=O)c3cccc(CCCCCN4CCC(n5cc(NC(=O)c6coc(-c7ccnc(NCC8CC8)c7)n6)c(C(F)F)n5)CC4)c3C2=O)C(=O)N1 (stereo not shown) [I-258] | C (<20% degradation) | B (>20-50% degradation) | C (<20% degradation) | > 1
7 | O=C1CCC(N2C(=O)c3ccc(NC4CCN(CCOCCOCCNC(=O)c5ccc(-n6cc(NC(=O)c7coc(-c8ccnc(NCC9CC9)c8)n7)c(C(F)F)n6)cc5)CC4)cc3C2=O)C(=O)N1 (stereo not shown) [I-270] | C (<20% degradation) | B (>20-50% degradation) | A (>50% degradation) | 0.1 to 0.5
8 | Cc1cc(-c2nc(C(=O)Nc3cn(-c4ccc(C(=O)NCCOCCOCCNc5cccc6c5C(=O)N(C5CCC(=O)NC5=O)C6=O)cc4)nc3C(N)=O)co2)ccn1 (stereo not shown) [I-241] | B (>20-50% degradation) | A (>50% degradation) | A (>50% degradation) | < 0.05
9 | NC(=O)c1nn(-c2ccc(CNCCOCCOCCn3c(=O)n(C4CCC(=O)NC4=O)c4ccccc43)cc2)cc1NC(=O)c1coc(-c2ccnc(NCC3CC3)c2)n1 (stereo not shown) [I-319] | B (>20-50% degradation) | A (>50% degradation) | A (>50% degradation) | < 0.05
10 | CN(CCOCCOCCCc1ccc2c(c1)C(=O)N(C1CCC(=O)NC1=O)C2=O)C(=O)c1ccc(-n2cc(NC(=O)c3coc(-c4ccnc(NCC5CC5)c4)n3)c(C(N)=O)n2)cc1 (stereo not shown) [I-228] | A (>50% degradation) | A (>50% degradation) | A (>50% degradation) | < 0.05
11 | CN(CCOCCOCCCc1ccc2c(c1)C(=O)N(C1CCC(=O)NC1=O)C2=O)Cc1ccc(-n2cc(NC(=O)c3coc(-c4ccnc(NCC5CC5)c4)n3)c(C(N)=O)n2)cc1 (stereo not shown) [I-308] | B (>20-50% degradation) | A (>50% degradation) | A (>50% degradation) | 0.05 to 0.1
12 | CN(CCCc1cccc2c1C(=O)N(C1CCC(=O)NC1=O)C2=O)Cc1ccc(-n2cc(NC(=O)c3coc(-c4ccnc(NCC(F)(F)F)c4)n3)c(C(F)F)n2)cc1 (stereo not shown) [I-360] | B (>20-50% degradation) | C (<20% degradation) | C (<20% degradation) | > 1
13 | O=C1CCC(N2C(=O)c3ccc(N4CCN(CCOCCOCCOCCNC(=O)c5ccc(-n6cc(NC(=O)c7coc(-c8ccnc(NCC9CC9)c8)n7)c(C(F)F)n6)cc5)CC4)cc3C2=O)C(=O)N1 (stereo not shown) [I-278] | C (<20% degradation) | B (>20-50% degradation) | A (>50% degradation) | 0.05 to 0.1
14 | NC(=O)c1nn(-c2ccc(C(=O)NCCOCCOCCNc3cccc4c3C(=O)N(C3CCC(=O)NC3=O)C4=O)cc2)cc1NC(=O)c1coc(-c2ccnc(N)c2)n1 (stereo not shown) [I-427] | B (>20-50% degradation) | A (>50% degradation) | A (>50% degradation) | < 0.05
15 | O=C1CCC(N2C(=O)c3ccc(N4CCN(CCOCCOCCNC(=O)c5ccc(-n6cc(NC(=O)c7coc(-c8ccnc(NCC9CC9)c8)n7)c(C(F)F)n6)cc5)CC4)cc3C2=O)C(=O)N1 (stereo not shown) [I-276] | C (<20% degradation) | B (>20-50% degradation) | A (>50% degradation) | 0.05 to 0.1
16 | NC(=O)c1nn(-c2ccc(CNCC3CN(CCOCCNc4cccc5c4C(=O)N(C4CCC(=O)NC4=O)C5=O)CCO3)cc2)cc1NC(=O)c1coc(-c2ccnc(NCC(F)(F)F)c2)n1 (stereo not shown) [I-305, N-[3-carbamoyl-1-[4-[[[4-[2-[2-[[2-(2,6-dioxo-3-piperidyl)-1,3-dioxo-isoindolin-4-yl]amino]ethoxy]ethyl]morpholin-2-yl]methylamino]methyl]phenyl]pyrazol-4-yl]-2-[2-(2,2,2-trifluoroethylamino)-4-pyridyl]oxazole-4-carboxamide] | A (>50% degradation) | A (>50% degradation) | A (>50% degradation) | < 0.05
17 | CN(CCOCCOCCCc1ccc2c(c1)C(=O)N(C1CCC(=O)NC1=O)C2=O)C(=O)c1ccc(-n2cc(NC(=O)c3coc(-c4ccncc4)n3)c(C(N)=O)n2)cc1 (stereo not shown) [I-227] | B (>20-50% degradation) | A (>50% degradation) | A (>50% degradation) | < 0.05
18 | O=C1CCC(N2C(=O)c3ccc(CCOCCN4CCC(n5cc(NC(=O)c6coc(-c7ccnc(NCC8CC8)c7)n6)c(C(F)F)n5)CC4)cc3C2=O)C(=O)N1 (stereo not shown) [I-262] | C (<20% degradation) | B (>20-50% degradation) | B (>20-50% degradation) | > 1
19 | CC(C)(C)[C@H](NC(=O)COCCOCCOCCNc1cccc2c1C(=O)N(C1CCC(=O)NC1=O)C2=O)C(=O)N1C[C@H](O)C[C@H]1C(=O)NCc1ccc(-n2cc(NC(=O)c3coc(-c4ccnc(NCC5CC5)c4)n3)c(C(F)F)n2)cc1 (stereo partly shown) [I-284] | C (<20% degradation) | C (<20% degradation) | C (<20% degradation) | > 1
20 | O=C1CCC(N2C(=O)c3cccc(NCCOCCOCCOCC(=O)N4C[C@H](O)C[C@H]4C(=O)NCc4ccc(-n5cc(NC(=O)c6coc(-c7ccnc(NCC8CC8)c7)n6)c(C(F)F)n5)cc4)c3C2=O)C(=O)N1 (stereo partly shown) [I-287] | C (<20% degradation) | C (<20% degradation) | B (>20-50% degradation) | > 1
21 | O=C1CCC(N2C(=O)c3cccc(NCCOCCN4CC5(CN(CCOCCNCc6ccc(-n7cc(NC(=O)c8coc(-c9ccnc(NCC%10CC%10)c9)n8)c(C(F)F)n7)cc6)C5)C4)c3C2=O)C(=O)N1 (stereo not shown) [I-350] | C (<20% degradation) | C (<20% degradation) | B (>20-50% degradation) | > 1
22 | O=C1CCC(N2C(=O)c3ccc(NCCOCCN4CC5(CN(CCOCCNCc6ccc(-n7cc(NC(=O)c8coc(-c9ccnc(NCC%10CC%10)c9)n8)c(C(F)F)n7)cc6)C5)C4)cc3C2=O)C(=O)N1 (stereo not shown) [I-351] | C (<20% degradation) | C (<20% degradation) | A (>50% degradation) | 0.1 to 0.5
